pIC50: −log10 of the molar value. *1 amine or outer side, *2 acyl side, *3 side chain or, on linkers, in order; H or OH if unused. Where a SMILES comes first, the peptide text is derived from it. Bridges are numbered along the chain shown (N, C = ends). [ ]: non-standard residue; d: D form. ξ: configuration not given here. Trp(1-CH2COOH) = N[C@@H](Cc1cn(CC(=O)O)c2ccccc12)C(=O)O; Trp(βS-Me) = C[C@@H](c1c[nH]c2ccccc12)[C@H](N)C(=O)O; Phe(3,4,5-F3) = N[C@@H](Cc1cc(F)c(F)c(F)c1)C(=O)O; NMePhe(4-F) = CN[C@@H](Cc1ccc(F)cc1)C(=O)O; d(cisHyp) = O=C(O)[C@H]1C[C@@H](O)CN1; Bta = N[C@@H](Cc1csc2ccccc12)C(=O)O; Hyp = O=C(O)[C@@H]1C[C@@H](O)CN1; NMeF = CN[C@@H](Cc1ccccc1)C(=O)O; X1 = O=C([C@H]1COCCN1[*:1])[*:2]; dPip(4-aza) = O=C(O)[C@H]1CNCCN1; dHyp = O=C(O)[C@H]1C[C@H](O)CN1; NMeNle = CCCC[C@H](NC)C(=O)O; dPip = O=C(O)[C@H]1CCCCN1; hSer = N[C@@H](CCO)C(=O)O; NMeA = CN[C@@H](C)C(=O)O; Orn = NCCC[C@H](N)C(=O)O; dNMeA = CN[C@H](C)C(=O)O; dThz = O=C(O)[C@H]1CSCN1; Dab = NCC[C@H](N)C(=O)O; Dap = NC[C@H](N)C(=O)O; ξC = NC(CS)C(=O)O; Sar = CNCC(=O)O

These results are taken from US10538555B2, “Macrocyclic inhibitors of the PD-1/PD-L1 and CD80(B7-1)/PD-L1 protein/protein interactions” (BRISTOL-MYERS SQUIBB COMPANY, priority 2014, dated 2020).

For the first assay, the target named is T1, Human PD-L1/PD-1 (Homo sapiens, UniProt Q9NZQ7).
T1 construct: TVMV protease cleavage site (C); made in house; host or cells: HEK293T cells
T1 sequence (Q9NZQ7 with tags, fused parts or gaps): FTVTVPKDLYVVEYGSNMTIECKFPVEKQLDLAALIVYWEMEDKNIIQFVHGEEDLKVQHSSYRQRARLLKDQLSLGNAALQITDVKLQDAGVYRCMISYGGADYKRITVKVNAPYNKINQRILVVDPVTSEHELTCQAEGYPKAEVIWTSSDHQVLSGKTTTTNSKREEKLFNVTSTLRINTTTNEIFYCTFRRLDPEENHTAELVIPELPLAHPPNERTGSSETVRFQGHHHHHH
Description: HTRF Human PD-L1/PD-1 binding assay (PD-1-Ig/PD-L1-His). Particulars: PD-L1-His 10 nM, PD-1-Ig 20 nM; class symbol; read-out: HTRF Human PD-L1/PD-1 Binding Assay IC50 Range. In outline: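 Step 1: compound with PD-L1-His (10 nM final), 15 min. Step 2: PD-1-Ig (20 nM final), 15 min. Step 3: Eu-cryptate anti-Ig (1 nM) plus APC anti-His (20 nM), 30 min equilibration. Signal taken as 665 nm/620 nm ratio.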
For orientation: TR-FRET usually uses a lanthanide donor and a delayed reading to cut background.
As for `CC(C)C[C@@H]1NC(=O)[C@H](Cc2ccc(O)cc2)NC(=O)[C@H](Cc2c[nH]c3ccccc23)NC(=O)[C@@H](C)N(C)C(=O)[C@H](Cc2ccc(O)cc2)NC(=O)[C@H](Cc2ccccc2)N(C)C(=O)[C@H](C(C)C)NC(=O)[C@H](CC(=O)O)NC(=O)[C@@H](C)N(C)C(=O)[C@H](C)N(C)C(=O)[C@H](Cc2ccccc2)N(C)C(=O)[C@H](Cc2cc(F)c(F)c(F)c2)NC(=O)CSC[C@@H](C(=O)NCC(N)=O)NC1=O` [Example 9188] ({CH2CO}-[Phe(3,4,5-F3)][NMeF][NMeA][dNMeA]DV[NMeF]Y[dNMeA]WYLCG-NH2; thioether N-13), the pIC50 was 8.00 to 9.00.
Same read-out and setting: then `CCCC[C@H]1C(=O)N2C[C@@H](O)C[C@@H]2C(=O)N[C@@H](CC(=O)O)C(=O)N[C@@H](C(C)C)C(=O)N(C)[C@@H](Cc2ccccc2)C(=O)N[C@@H](CCC(=O)O)C(=O)N2CCCC[C@@H]2C(=O)N[C@@H](Cc2cn(CC(=O)O)c3ccccc23)C(=O)N[C@@H](Cc2ccc(O)cc2)C(=O)N[C@@H](CCN)C(=O)N[C@H](C(=O)NCC(N)=O)CSCC(=O)N[C@@H](Cc2cc(F)c(F)c(F)c2)C(=O)N(C)[C@@H](Cc2ccccc2)C(=O)N1C` [Example 10585] ({CH2CO}-[Phe(3,4,5-F3)][NMeF][NMeNle][dHyp]DV[NMeF]E[dPip][Trp(1-CH2COOH)]Y[Dab]CG-NH2; thioether N-13), with 8.00 to 9.00; and `CCCC[C@H]1C(=O)N2C[C@@H](O)C[C@@H]2C(=O)N[C@@H](CC(=O)O)C(=O)N[C@@H](C(C)C)C(=O)N(C)[C@@H](Cc2ccccc2)C(=O)N[C@@H](CCC(=O)O)C(=O)N2CCOC[C@@H]2C(=O)N[C@@H](Cc2cn(CC(=O)O)c3ccccc23)C(=O)N[C@@H](Cc2ccc(O)cc2)C(=O)N[C@@H](CCCN)C(=O)N[C@H](C(=O)NCC(N)=O)CSCC(=O)N[C@@H](Cc2cc(F)c(F)c(F)c2)C(=O)N(C)[C@@H](Cc2ccccc2)C(=O)N1C` [Example 9270] ({CH2CO}-[Phe(3,4,5-F3)][NMeF][NMeNle][dHyp]DV[NMeF]E[X1][Trp(1-CH2COOH)]Y[Orn]CG-NH2; thioether N-13), with 8.00 to 9.00.
Still for that read-out and setting: then `CCCC[C@H]1C(=O)N(C)[C@@H](CCCC)C(=O)N[C@@H](CCCNC(=N)N)C(=O)NC(C(=O)NCC(N)=O)CSCC(=O)N[C@@H](Cc2ccc(O)cc2)C(=O)N(C)[C@@H](C)C(=O)N[C@@H](CC(N)=O)C(=O)N2CCC[C@H]2C(=O)N[C@@H](Cc2cnc[nH]2)C(=O)N[C@@H](CCO)C(=O)N2CCC[C@H]2C(=O)N[C@@H](Cc2c[nH]c3ccccc23)C(=O)N[C@@H](CO)C(=O)N[C@@H](Cc2csc3ccccc23)C(=O)N1C` (stereo partly drawn) [Example 9126] ({CH2CO}-Y[NMeA]NPH[hSer]PWS[Bta][NMeNle][NMeNle]R[ξC]G-NH2; thioether N-14), with 8.00 to 9.00.
Take `CCCC[C@H]1C(=O)N2C[C@H](O)C[C@@H]2C(=O)N[C@@H](CC(=O)O)C(=O)N[C@@H](C(C)C)C(=O)N(C)[C@@H](Cc2ccccc2)C(=O)N[C@@H](Cc2ccc(O)cc2)C(=O)N2CCNC[C@@H]2C(=O)N[C@@H](Cc2c[nH]c3ccccc23)C(=O)N[C@@H](Cc2ccc(O)cc2)C(=O)N[C@@H](CC(C)C)C(=O)N[C@H](C(=O)NCC(N)=O)CSCC(=O)N[C@@H](Cc2cc(F)c(F)c(F)c2)C(=O)N(C)[C@@H](Cc2ccccc2)C(=O)N1C` [Example 10168] ({CH2CO}-[Phe(3,4,5-F3)][NMeF][NMeNle][d(cisHyp)]DV[NMeF]Y[dPip(4-aza)]WYLCG-NH2; thioether N-13): the pIC50 is 8.00 to 9.00.
The same measure, in the same setting: then `CCCC[C@H]1C(=O)N(C)[C@@H](C)C(=O)N[C@@H](CCCNC(=N)N)C(=O)NC(C(=O)N[C@@H](CO)C(N)=O)CSCC(=O)N[C@@H](Cc2ccc(O)cc2)C(=O)N(C)[C@@H](C)C(=O)N[C@@H](CC(N)=O)C(=O)N2CCC[C@H]2C(=O)N[C@@H](CO)C(=O)N[C@H](CC(C)C)C(=O)N2C[C@H](O)C[C@H]2C(=O)N[C@@H](Cc2c[nH]c3ccccc23)C(=O)N[C@@H](CO)C(=O)N[C@@H](Cc2csc3ccccc23)C(=O)N1C` (stereo partly drawn) [Example 9124] ({CH2CO}-Y[NMeA]NPS[dL][Hyp]WS[Bta][NMeNle][NMeA]R[ξC]S-NH2; thioether N-14), with 7.00 to 8.00; and `CCCC[C@H]1C(=O)N2C[C@H](O)C[C@@H]2C(=O)N[C@@H](CC(=O)O)C(=O)N[C@@H](C(C)C)C(=O)N(C)[C@@H](Cc2ccccc2)C(=O)N[C@@H](Cc2ccc(O)cc2)C(=O)N2C[C@@H](O)C[C@@H]2C(=O)N[C@@H](Cc2c[nH]c3ccccc23)C(=O)N[C@@H](Cc2ccc(O)cc2)C(=O)N[C@@H](CC(C)C)C(=O)N[C@H](C(=O)NCC(N)=O)CSCC(=O)N[C@@H](Cc2cc(F)c(F)c(F)c2)C(=O)N(C)[C@@H](Cc2ccccc2)C(=O)N1C` [Example 9371] ({CH2CO}-[Phe(3,4,5-F3)][NMeF][NMeNle][d(cisHyp)]DV[NMeF]Y[dHyp]WYLCG-NH2; thioether N-13), with 8.00 to 9.00.
Still for that read-out and setting: in the case of `CCCC[C@H]1C(=O)N(C)[C@@H](CCCC)C(=O)N[C@@H](CCCNC(=N)N)C(=O)N[C@H](C(N)=O)CSCC(=O)N[C@@H](Cc2ccc(O)cc2)C(=O)N(C)[C@@H](C)C(=O)N[C@@H](CC(N)=O)C(=O)N2CCC[C@H]2C(=O)N[C@@H](CC(N)=O)C(=O)N[C@@H](CC(C)C)C(=O)N2C[C@H](O)C[C@H]2C(=O)N[C@@H]([C@@H](C)c2c[nH]c3ccccc23)C(=O)N[C@@H](CO)C(=O)N[C@@H](Cc2c[nH]c3ccccc23)C(=O)N1C` [Example 10531] ({CH2CO}-Y[NMeA]NPNL[Hyp][Trp(βS-Me)]SW[NMeNle][NMeNle]RC-NH2; thioether N-14) it was 8.00 to 9.00; in that of `CCCC[C@H]1C(=O)N2CCC[C@@H]2C(=O)N[C@@H](CC(=O)O)C(=O)N[C@@H](C(C)C)C(=O)N(C)[C@@H](Cc2ccccc2)C(=O)N[C@@H](CCC(=O)O)C(=O)N2CCOC[C@@H]2C(=O)N[C@@H](Cc2c[nH]c3ccccc23)C(=O)N[C@@H](Cc2ccc(O)cc2)C(=O)N[C@@H](CCCN)C(=O)N[C@H](C(=O)NCC(N)=O)CSCC(=O)N[C@@H](Cc2cc(F)c(F)c(F)c2)C(=O)N(C)[C@@H](Cc2ccc(F)cc2)C(=O)N1C` [Example 10596] ({CH2CO}-[Phe(3,4,5-F3)][NMePhe(4-F)][NMeNle][dP]DV[NMeF]E[X1]WY[Orn]CG-NH2; thioether N-13), 8.00 to 9.00.
As for `CCCC[C@H]1C(=O)N2CCC[C@@H]2C(=O)N[C@@H](CO)C(=O)N[C@@H](C)C(=O)N(C)[C@@H](Cc2ccccc2)C(=O)N[C@@H](Cc2ccc(O)cc2)C(=O)N(C)CC(=O)N[C@@H](Cc2c[nH]c3ccccc23)C(=O)N[C@@H](Cc2ccc(O)cc2)C(=O)N[C@@H](CC(C)C)C(=O)N[C@H](C(=O)NCC(N)=O)CSCC(=O)N[C@@H](Cc2ccccc2)C(=O)N(C)[C@@H](Cc2ccccc2)C(=O)N1C` [Example 10054] ({CH2CO}-F[NMeF][NMeNle][dP]SA[NMeF]Y[Sar]WYLCG-NH2; thioether N-13), the pIC50 is 6.00 to 7.00.
On the same count and under the same terms, in the case of `CCCC[C@H]1C(=O)N(C)[C@@H](CCCC)C(=O)N[C@@H](CC(C)C)C(=O)N[C@H](C(=O)NCC(N)=O)CSCC(=O)N[C@@H](Cc2ccc(O)cc2)C(=O)N(C)[C@@H](C)C(=O)N[C@@H](CC(=O)O)C(=O)N2CCC[C@H]2C(=O)N[C@@H](CN)C(=O)N[C@@H](CC(C)C)C(=O)N2CCC[C@H]2C(=O)N[C@@H](Cc2c[nH]c3ccccc23)C(=O)N[C@@H](CCN)C(=O)N[C@@H](Cc2cn(CC(=O)O)c3ccccc23)C(=O)N1C` [Example 6283] ({CH2CO}-Y[NMeA]DP[Dap]LPW[Dab][Trp(1-CH2COOH)][NMeNle][NMeNle]LCG-NH2; thioether N-14) it was 8.00 to 9.00; in that of `CCCC[C@H]1C(=O)N(C)[C@@H](CCCC)C(=O)N[C@@H](CCC(=O)O)C(=O)N[C@H](C(=O)NCC(N)=O)CSCC(=O)N[C@@H](Cc2ccc(O)cc2)C(=O)N(C)[C@@H](C)C(=O)N[C@@H](CC(=O)O)C(=O)N2CCC[C@H]2C(=O)N[C@@H](CN)C(=O)N[C@@H](CCC(N)=O)C(=O)N2C[C@H](O)C[C@H]2C(=O)N[C@@H](Cc2c[nH]c3ccccc23)C(=O)N[C@@H](CO)C(=O)N[C@@H](Cc2cn(CC(=O)O)c3ccccc23)C(=O)N1C` [Example 6289] ({CH2CO}-Y[NMeA]DP[Dap]Q[Hyp]WS[Trp(1-CH2COOH)][NMeNle][NMeNle]ECG-NH2; thioether N-14), 8.00 to 9.00.
For the compound `CCCC[C@H]1C(=O)N2CCC[C@@H]2C(=O)N[C@@H](CO)C(=O)N[C@@H](C(C)C)C(=O)N(C)[C@@H](Cc2ccccc2)C(=O)N[C@@H](Cc2ccc(O)cc2)C(=O)N2CSC[C@@H]2C(=O)N[C@@H](Cc2c[nH]c3ccccc23)C(=O)N[C@@H](Cc2ccc(O)cc2)C(=O)N[C@@H](CC(C)C)C(=O)N[C@H](C(=O)NCC(N)=O)CSCC(=O)N[C@@H](Cc2ccccc2)C(=O)N(C)[C@@H](Cc2ccccc2)C(=O)N1C` [Example 10070] ({CH2CO}-F[NMeF][NMeNle][dP]SV[NMeF]Y[dThz]WYLCG-NH2; thioether N-13), the pIC50 is 7.00 to 8.00.
Same read-out and setting: then `CCCC[C@H]1C(=O)N(C)[C@@H](CCCC)C(=O)N[C@@H](CCCN)C(=O)N[C@H](C(=O)NCC(N)=O)CSCC(=O)N[C@@H](Cc2ccc(OC)cc2)C(=O)N(C)[C@@H](C)C(=O)N[C@@H](CCN)C(=O)N2CCC[C@H]2C(=O)N[C@@H](CN)C(=O)N[C@@H](CCCCN)C(=O)N2C[C@H](O)C[C@H]2C(=O)N[C@@H](Cc2c[nH]c3ccccc23)C(=O)N[C@@H](CCN)C(=O)N[C@@H](Cc2c[nH]c3ccccc23)C(=O)N1C` [Example 7103] ({CH2CO}-Y(Me)[NMeA][Dab]P[Dap]K[Hyp]W[Dab]W[NMeNle][NMeNle][Orn]CG-NH2; thioether N-14), with 7.00 to 8.00.

Staying with this assay, now noted: PD-L1-His 10 nM, PD-1-Ig 20 nM; read-out: HTRF Human PD-L1/PD-1 Binding Assay IC50.
Consider `CC(C)C[C@@H]1NC(=O)[C@H](Cc2ccc(O)cc2)NC(=O)[C@H](Cc2c[nH]c3ccccc23)NC(=O)[C@H]2CCCCN2C(=O)[C@H](Cc2ccc(O)cc2)NC(=O)[C@H](Cc2ccccc2)N(C)C(=O)[C@H](C(C)C)NC(=O)[C@H](CC(=O)O)NC(=O)[C@H]2CCCN2C(=O)[C@H](C)N(C)C(=O)[C@H](Cc2ccc(F)cc2)N(C)C(=O)[C@H](Cc2ccccc2)NC(=O)CSC[C@@H](C(=O)NCC(N)=O)NC1=O` [Example 10543] ({CH2CO}-F[NMePhe(4-F)][NMeA][dP]DV[NMeF]Y[dPip]WYLCG-NH2; thioether N-13), for which the pIC50 was 8.00.
